Reference: patent US20250282827A1, “LIPIDATED POLYMYXIN ANALOGUES” (priority 2021, published 2025)
≈ marks a conversion by molar mass, not a printed value. Positions of bridges follow the written chain, without caps; N, C: chain ends. Non-standard residues stand in square brackets, D forms with d. Residues, ends and D or L forms follow the SMILES beside them. *: point of attachment. Ethyl(2-decanoyloxy) = CCCCCCCCCC(=O)OCC*; Ethyl(2-butanoyloxy) = CCCC(=O)OCC*; Ethyl(2-propionyloxy) = CCC(=O)OCC*; Ethyl(2-OPiv) = CC(C)(C)C(=O)OCC*; Ethyl(2-OBz) = O=C(OCC*)c1ccccc1; X14 = CCCCCCCCCCCC(=O)OCC*; hCys = N[C@@H](CCS)C(=O)O; Octanoyl = CCCCCCCC(=O)*; Dab = NCC[C@H](N)C(=O)O; Dap = NC[C@H](N)C(=O)O; X4 = CCCCCCCC(=O)OCC*; X1 = CCCCCC(=O)OCC*; Mpa = O=C(O)CCS

What follows are compounds tested on E. coli ATCC 25922. Settings: ATCC 25922.
Assay type: cell-based, Escherichia coli
Source text: All 81 compounds prepared in Examples 2 and 3 underwent screening against a panel of Gram-negative bacterium to assess their ability to inhibit bacterial growth. […] The median value is presented.
With `CCC(=O)OCCSC[C@@H](N)C(=O)N[C@H](C(=O)N[C@@H](CN)C(=O)N[C@H]1CCNC(=O)[C@H]([C@@H](C)O)NC(=O)[C@H](CCN)NC(=O)[C@H](CCN)NC(=O)[C@H](CC(C)C)NC(=O)[C@@H](Cc2ccccc2)NC(=O)[C@H](CCN)NC1=O)[C@@H](C)O` [Compound 82] (H-[dC](Ethyl(2-propionyloxy))T[Dap][Dab][Dab][dF]L[Dab][Dab]T; lactam 4-C) the “MIC E. coli ATCC 25922” value was 1 µg/mL (≈ 0.868 µM).
For `CCC(=O)OCCSC[C@H](N)C(=O)N[C@H](C(=O)N[C@H](CO)C(=O)N[C@H]1CCNC(=O)[C@H]([C@@H](C)O)NC(=O)[C@H](CCN)NC(=O)[C@H](CCN)NC(=O)[C@H](CC(C)C)NC(=O)[C@@H](Cc2ccccc2)NC(=O)[C@H](CCN)NC1=O)[C@@H](C)O` [Compound 85] (H-C(Ethyl(2-propionyloxy))T[dS][Dab][Dab][dF]L[Dab][Dab]T; lactam 4-C), the “MIC E. coli ATCC 25922” value was over 128 µg/mL.
For `CCC(=O)OCCSC[C@@H](N)C(=O)N[C@H](C(=O)N[C@@H](CCN)C(=O)N[C@H]1CCNC(=O)[C@H]([C@@H](C)O)NC(=O)[C@H](CCN)NC(=O)[C@H](CCN)NC(=O)[C@H](CC(C)C)NC(=O)[C@@H](Cc2ccccc2)NC(=O)[C@H](CCN)NC1=O)[C@@H](C)O` [Compound 74] (H-[dC](Ethyl(2-propionyloxy))T[Dab][Dab][Dab][dF]L[Dab][Dab]T; lactam 4-C), the “MIC E. coli ATCC 25922” value was 2 µg/mL (≈ 1.71 µM).
For `CCC(=O)OCCSCC[C@H](N)C(=O)N[C@H](C(=O)N[C@@H](CN)C(=O)N[C@H]1CCNC(=O)[C@H]([C@@H](C)O)NC(=O)[C@H](CCN)NC(=O)[C@H](CCN)NC(=O)[C@H](CC(C)C)NC(=O)[C@@H](Cc2ccccc2)NC(=O)[C@H](CCN)NC1=O)[C@@H](C)O` [Compound 84] (H-[hCys](Ethyl(2-propionyloxy))T[Dap][Dab][Dab][dF]L[Dab][Dab]T; lactam 4-C), the “MIC E. coli ATCC 25922” value was 32 µg/mL (≈ 27.4 µM).
For `CCCCCCCC(=O)N[C@@H](CCN)C(=O)N[C@H](C(=O)N[C@@H](CCN)C(=O)N[C@H]1CCNC(=O)[C@H]([C@@H](C)O)NC(=O)[C@H](CCN)NC(=O)[C@H](CCN)NC(=O)[C@H](CC(C)C)NC(=O)[C@@H](Cc2ccccc2)NC(=O)[C@H](CCN)NC1=O)[C@@H](C)O` [polymyxin B3, reference compound] (Octanoyl-[Dab]T[Dab][Dab][Dab][dF]L[Dab][Dab]T; lactam 4-C (inferred); N-terminus assumed), the “activity against E. coli (MIC)” value was 0.25 µg/mL.
`CCC(=O)OCCSCCC(=O)N[C@H](C(=O)N[C@H](CO)C(=O)N[C@H]1CCNC(=O)[C@H]([C@@H](C)O)NC(=O)[C@H](CCN)NC(=O)[C@H](CCN)NC(=O)[C@H](CC(C)C)NC(=O)[C@@H](Cc2ccccc2)NC(=O)[C@H](CCN)NC1=O)[C@@H](C)O` [Compound 87] ([Mpa](Ethyl(2-propionyloxy))T[dS][Dab][Dab][dF]L[Dab][Dab]T; lactam 4-C) was tested, and the “MIC E. coli ATCC 25922” value was 16 µg/mL (≈ 14.1 µM).
In the case of `CCC(=O)OCCSC[C@@H](N)C(=O)N[C@H](C(=O)N[C@H](CO)C(=O)N[C@H]1CCNC(=O)[C@H]([C@@H](C)O)NC(=O)[C@H](CCN)NC(=O)[C@H](CCN)NC(=O)[C@H](CC(C)C)NC(=O)[C@@H](Cc2ccccc2)NC(=O)[C@H](CCN)NC1=O)[C@@H](C)O` [Compound 86] (H-[dC](Ethyl(2-propionyloxy))T[dS][Dab][Dab][dF]L[Dab][Dab]T; lactam 4-C), the “MIC E. coli ATCC 25922” value was 2 µg/mL (≈ 1.73 µM).
In the case of `CC(C)C[C@@H]1NC(=O)[C@@H](Cc2ccccc2)NC(=O)[C@H](CCN)NC(=O)[C@@H](NC(=O)[C@H](CCN)NC(=O)[C@@H](NC(=O)[C@@H](N)CSCCOC(=O)C(C)(C)C)[C@@H](C)O)CCNC(=O)[C@H]([C@@H](C)O)NC(=O)[C@H](CCN)NC(=O)[C@H](CCN)NC1=O` [Compound 71] (H-C(Ethyl(2-OPiv))T[Dab][Dab][Dab][dF]L[Dab][Dab]T; lactam 4-C), the “MIC E. coli ATCC 25922” value was 32 µg/mL (≈ 26.8 µM).
For `CC(C)C[C@@H]1NC(=O)[C@@H](Cc2ccccc2)NC(=O)[C@H](CCN)NC(=O)[C@@H](NC(=O)[C@H](CCN)NC(=O)[C@@H](NC(=O)[C@H](N)CSCCOC(=O)C(C)(C)C)[C@@H](C)O)CCNC(=O)[C@H]([C@@H](C)O)NC(=O)[C@H](CCN)NC(=O)[C@H](CCN)NC1=O` [Compound 79] (H-[dC](Ethyl(2-OPiv))T[Dab][Dab][Dab][dF]L[Dab][Dab]T; lactam 4-C), the “MIC E. coli ATCC 25922” value was 0.25 µg/mL (≈ 0.209 µM).
In the case of `CCC(=O)OCCSCC[C@H](N)C(=O)N[C@H](C(=O)N[C@@H](CCN)C(=O)N[C@H]1CCNC(=O)[C@H]([C@@H](C)O)NC(=O)[C@H](CCN)NC(=O)[C@H](CCN)NC(=O)[C@H](CC(C)C)NC(=O)[C@@H](Cc2ccccc2)NC(=O)[C@H](CCN)NC1=O)[C@@H](C)O` [Compound 64] (H-[hCys](Ethyl(2-propionyloxy))T[Dab][Dab][Dab][dF]L[Dab][Dab]T; lactam 4-C), the “MIC E. coli ATCC 25922” value was over 128 µg/mL.
`CCCC(=O)OCCSC[C@H](N)C(=O)N[C@H](C(=O)N[C@@H](CCN)C(=O)N[C@H]1CCNC(=O)[C@H]([C@@H](C)O)NC(=O)[C@H](CCN)NC(=O)[C@H](CCN)NC(=O)[C@H](CC(C)C)NC(=O)[C@@H](Cc2ccccc2)NC(=O)[C@H](CCN)NC1=O)[C@@H](C)O` [Compound 66] (H-C(Ethyl(2-butanoyloxy))T[Dab][Dab][Dab][dF]L[Dab][Dab]T; lactam 4-C) was tested, and the “MIC E. coli ATCC 25922” value was 16 µg/mL (≈ 13.6 µM).
In the case of `CCC(=O)OCCSCCC(=O)N[C@H](C(=O)N[C@@H](CCN)C(=O)N[C@H]1CCNC(=O)[C@H]([C@@H](C)O)NC(=O)[C@H](CCN)NC(=O)[C@H](CCN)NC(=O)[C@H](CC(C)C)NC(=O)[C@@H](Cc2ccccc2)NC(=O)[C@H](CCN)NC1=O)[C@@H](C)O` [Compound 63] ([Mpa](Ethyl(2-propionyloxy))T[Dab][Dab][Dab][dF]L[Dab][Dab]T; lactam 4-C), the “MIC E. coli ATCC 25922” value was 8 µg/mL (≈ 6.95 µM).
`CCCCCC(=O)OCCSC[C@H](N)C(=O)N[C@H](C(=O)N[C@@H](CCN)C(=O)N[C@H]1CCNC(=O)[C@H]([C@@H](C)O)NC(=O)[C@H](CCN)NC(=O)[C@H](CCN)NC(=O)[C@H](CC(C)C)NC(=O)[C@@H](Cc2ccccc2)NC(=O)[C@H](CCN)NC1=O)[C@@H](C)O` [Compound 67] (H-C(X1)T[Dab][Dab][Dab][dF]L[Dab][Dab]T; lactam 4-C) was tested, and the “MIC E. coli ATCC 25922” value was 4 µg/mL (≈ 3.31 µM).
For `CCC(=O)OCCSCC[C@H](N)C(=O)N[C@H](C(=O)N[C@H](CO)C(=O)N[C@H]1CCNC(=O)[C@H]([C@@H](C)O)NC(=O)[C@H](CCN)NC(=O)[C@H](CCN)NC(=O)[C@H](CC(C)C)NC(=O)[C@@H](Cc2ccccc2)NC(=O)[C@H](CCN)NC1=O)[C@@H](C)O` [Compound 88] (H-[hCys](Ethyl(2-propionyloxy))T[dS][Dab][Dab][dF]L[Dab][Dab]T; lactam 4-C), the “MIC E. coli ATCC 25922” value was over 64 µg/mL.
In the case of `CCCC(=O)OCCSC[C@@H](N)C(=O)N[C@H](C(=O)N[C@@H](CCN)C(=O)N[C@H]1CCNC(=O)[C@H]([C@@H](C)O)NC(=O)[C@H](CCN)NC(=O)[C@H](CCN)NC(=O)[C@H](CC(C)C)NC(=O)[C@@H](Cc2ccccc2)NC(=O)[C@H](CCN)NC1=O)[C@@H](C)O` [Compound 75] (H-[dC](Ethyl(2-butanoyloxy))T[Dab][Dab][Dab][dF]L[Dab][Dab]T; lactam 4-C), the “MIC E. coli ATCC 25922” value was 1 µg/mL (≈ 0.847 µM).
In the case of `CCCCCCCCCCCC(=O)OCCSC[C@H](N)C(=O)N[C@H](C(=O)N[C@@H](CCN)C(=O)N[C@H]1CCNC(=O)[C@H]([C@@H](C)O)NC(=O)[C@H](CCN)NC(=O)[C@H](CCN)NC(=O)[C@H](CC(C)C)NC(=O)[C@@H](Cc2ccccc2)NC(=O)[C@H](CCN)NC1=O)[C@@H](C)O` [Compound 70] (H-C(X14)T[Dab][Dab][Dab][dF]L[Dab][Dab]T; lactam 4-C), the “MIC E. coli ATCC 25922” value was 8 µg/mL (≈ 6.19 µM).
`CCC(=O)OCCSC[C@@H](N)C(=O)N[C@H](C(=O)N[C@@H](CCN)C(=O)N[C@H]1CCNC(=O)[C@H]([C@@H](C)O)NC(=O)[C@H](CCN)NC(=O)[C@H](CCN)NC(=O)[C@H](CC(C)C)NC(=O)[C@@H](Cc2ccccc2)NC(=O)[C@H](CCN)NC1=O)[C@@H](C)O` [Compound 62] (H-[dC](Ethyl(2-propionyloxy))T[Dab][Dab][Dab][dF]L[Dab][Dab]T; lactam 4-C) was tested, and the “MIC E. coli ATCC 25922” value was 1 µg/mL (≈ 0.857 µM).
For `CCCCCCCC(=O)OCCSC[C@H](N)C(=O)N[C@H](C(=O)N[C@@H](CCN)C(=O)N[C@H]1CCNC(=O)[C@H]([C@@H](C)O)NC(=O)[C@H](CCN)NC(=O)[C@H](CCN)NC(=O)[C@H](CC(C)C)NC(=O)[C@@H](Cc2ccccc2)NC(=O)[C@H](CCN)NC1=O)[C@@H](C)O` [Compound 68] (H-C(X4)T[Dab][Dab][Dab][dF]L[Dab][Dab]T; lactam 4-C), the “MIC E. coli ATCC 25922” value was 1 µg/mL (≈ 0.809 µM).
With `CCCCCC(=O)OCCSC[C@@H](N)C(=O)N[C@H](C(=O)N[C@@H](CCN)C(=O)N[C@H]1CCNC(=O)[C@H]([C@@H](C)O)NC(=O)[C@H](CCN)NC(=O)[C@H](CCN)NC(=O)[C@H](CC(C)C)NC(=O)[C@@H](Cc2ccccc2)NC(=O)[C@H](CCN)NC1=O)[C@@H](C)O` [Compound 76] (H-[dC](X1)T[Dab][Dab][Dab][dF]L[Dab][Dab]T; lactam 4-C) the “MIC E. coli ATCC 25922” value was 0.125 µg/mL (≈ 0.103 µM).
In the case of `CCCCCCCCCC(=O)OCCSC[C@H](N)C(=O)N[C@H](C(=O)N[C@@H](CCN)C(=O)N[C@H]1CCNC(=O)[C@H]([C@@H](C)O)NC(=O)[C@H](CCN)NC(=O)[C@H](CCN)NC(=O)[C@H](CC(C)C)NC(=O)[C@@H](Cc2ccccc2)NC(=O)[C@H](CCN)NC1=O)[C@@H](C)O` [Compound 69] (H-C(Ethyl(2-decanoyloxy))T[Dab][Dab][Dab][dF]L[Dab][Dab]T; lactam 4-C), the “MIC E. coli ATCC 25922” value was 2 µg/mL (≈ 1.58 µM).

Same assay, conditions: median of triplicate
For `CC(C)C[C@@H]1NC(=O)[C@@H](Cc2ccccc2)NC(=O)[C@H](CCN)NC(=O)[C@@H](NC(=O)[C@H](CCN)NC(=O)[C@@H](NC(=O)[C@@H](N)CSCCOC(=O)c2ccccc2)[C@@H](C)O)CCNC(=O)[C@H]([C@@H](C)O)NC(=O)[C@H](CCN)NC(=O)[C@H](CCN)NC1=O` [Compound 72] (H-C(Ethyl(2-OBz))T[Dab][Dab][Dab][dF]L[Dab][Dab]T; lactam 4-C), the “MIC E. coli ATCC 25922” value was 8 µg/mL (≈ 6.59 µM).
